# Laboratory results published in article PMC10762035, “Molecular basis of human trace amine-associated receptor 1 activation” (Nature Communications, 2024).
# Where a chain is given by its changes, count along the chain named. Several values for one entry are separate records, joined by “and”; a condition that tells them apart may be missing. Identical values can stand only once.
# Experiments:
# hTA1 C88/178S = biological target: T1, hTA1 C88/178S (Homo sapiens, UniProt Q96RJ0, C178S/C88S); experiment: GloSensor cAMP accumulation assay, C88S/C178S double mutant; type: cell-based; conditions: C88S, C178S; for Normalized Luminescence Counts (N=2): log[Compound], single replicate values
# T1 construct: expressed in transfected cells; host or cells: HEK293T
# T1 sequence (Q96RJ0 1-339 C88S/C178S): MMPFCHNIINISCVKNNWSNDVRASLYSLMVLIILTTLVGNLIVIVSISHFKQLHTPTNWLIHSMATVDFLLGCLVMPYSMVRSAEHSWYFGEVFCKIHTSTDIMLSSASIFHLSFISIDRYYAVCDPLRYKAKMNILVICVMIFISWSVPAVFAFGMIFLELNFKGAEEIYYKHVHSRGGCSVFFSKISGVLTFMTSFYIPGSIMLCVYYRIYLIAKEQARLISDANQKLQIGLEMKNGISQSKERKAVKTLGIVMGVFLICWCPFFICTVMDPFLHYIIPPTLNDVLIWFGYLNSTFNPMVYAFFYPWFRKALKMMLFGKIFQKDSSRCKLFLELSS
# hTA1 = biological target: T2, hTA1 (Homo sapiens, UniProt Q96RJ0); experiment: GloSensor cAMP accumulation assay, concentration response, wild-type hTA1 in transfected HEK293T cells; type: cell-based; conditions: for Dose-response curves for asenapine vs endogenous trace amines: log[Compound], replicate values (N=2);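 as to all read-outs here: luminescence read after 30 min compound exposure at room temperature in cells preloaded with D-Luciferin, reflecting Gs-driven cAMP rise, efficacy scaled to the maximal β-PEA response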
# T2 construct: expressed in transfected cells; host or cells: HEK293T
# T2 sequence (Q96RJ0 1-339): T1 sequence (Q96RJ0 1-339 C88S/C178S) with S88C, S178C
compound,measurement,setting,value
"NCCc1ccc(Oc2ccc(O)cc2)c(I)c1 [T1AM, 3-iodothyronamine]",Normalized Luminescence Counts (N=2),hTA1 C88/178S; M = -7,11.3097 and 9.048 and 12.1012 and 6.655 and 6.504 and 10.7333
same,Normalized Luminescence Counts (N=2),hTA1 C88/178S; M = -7.522,2.433 and 2.8292 and 3.225 and 0.6137 and -1.652 and -0.1415
same,Normalized Luminescence Counts (N=2),hTA1 C88/178S; M = -8,0.6808 and 0.7373 and 1.19 and -0.1415 and -0.2925 and 0.9158
same,Normalized Luminescence Counts (N=2),hTA1 C88/178S; M = -8.522,0.7373 and 0.7939 and 0.285 and -1.501 and 0.1606 and -0.4436
same,Normalized Luminescence Counts (N=2),hTA1 C88/178S; M = -9,0.4547 (2×) and 1.981 and -1.199 and -2.558 and -1.652
same,Normalized Luminescence Counts (N=2),hTA1 C88/178S; M = -9.522,0.285 (2×) and 0.2285 and -0.4436 and -2.105 and -1.199
same,Normalized Luminescence Counts (N=2),hTA1 C88/178S; M = -10,1.19 and 0.0589 and 2.2073 and 0.4627 and 0.3116 and -0.1415
same,Normalized Luminescence Counts (N=2),hTA1 C88/178S; M = -10.522,1.077 and 0.285 and 1.1331 and 0.1606 and -2.86 and -1.652
same,Normalized Luminescence Counts (N=2),hTA1 C88/178S; M = -11,1.529 and 0.9635 and 0.2285 and -1.048 and -1.35 and -1.652
same,Normalized Luminescence Counts (N=2),hTA1 C88/178S; M = -11.522,1.19 and 1.246 and 0.4547 and -0.5946 and -1.199 (2×)
same,Normalized Luminescence Counts (N=2),hTA1 C88/178S; M = -12,0.3981 and 0.172 and 1.981 and -1.501 and -1.048 and -0.2925
same,Normalized Luminescence Counts (N=2),hTA1 C88/178S; M = -12.522,1.1331 and 2.773 and 1.19 and -0.1415 and -1.35 and -0.8967
same,"Emax values, Mean","hTA1 C88/178S; normalized (β-PEA = 100), each row is one independent experiment, 3 replicates",85.7378 and 112.06
same,"pEC50 values, Avg","hTA1; WT hTA1, average of the two experiments, Figure 2B source data",6.129
same,"pEC50 values, Mean","hTA1; WT hTA1, each line an independent experiment, 3 replicates, Figure 2B source data",6.182 and 6.077
same,"Emax values, Avg","hTA1; WT hTA1, β-PEA = 100, average of the two experiments",70.45
same,"Emax values, Mean","hTA1; WT hTA1, β-PEA = 100, each line an independent experiment, 3 replicates",81.6192 and 59.2734
same,"Emax values, Avg","hTA1; WT, average of the experiments, β-PEA = 100",70.45
same,"Emax values, Avg","hTA1; WT, average of the two experiments",70.45
same,"Emax values, Mean","hTA1; WT, mean of each independent experiment (3 replicates), β-PEA = 100",81.6192 and 59.2734
same,"Emax values, Mean","hTA1; WT, single experiments (3 replicates each), β-PEA = 100",81.6192 and 59.2734
same,Dose-response curves for asenapine vs endogenous trace amines,hTA1; M = -5,80.3892 and 70.8419 and 77.0287 and 53.9778 and 58.2977 and 47.0284
same,Dose-response curves for asenapine vs endogenous trace amines,hTA1; M = -5.522,67.6372 and 58.4905 and 72.8448 and 53.4613 and 47.5449 and 34.1625
same,Dose-response curves for asenapine vs endogenous trace amines,hTA1; M = -6,47.6524 and 43.0457 and 45.9165 and 36.4633 and 32.8477 and 25.2879
same,Dose-response curves for asenapine vs endogenous trace amines,hTA1; M = -6.522,27.5341 and 25.2641 and 26.1988 and 18.1976 and 14.2064 and 10.9195
same,Dose-response curves for asenapine vs endogenous trace amines,hTA1; M = -7,12.6456 and 9.641 and 11.7554 and 4.346 and 3.125 and 2.796
same,Dose-response curves for asenapine vs endogenous trace amines,hTA1; M = -7.522,2.609 and 0.272 and 1.897 and 0.1666 and -0.02121 and -0.8664
same,Dose-response curves for asenapine vs endogenous trace amines,hTA1; M = -8,1.34 and 0.4055 and 0.9619 and 0.2136 and -0.06817 and -0.9603
same,Dose-response curves for asenapine vs endogenous trace amines,hTA1; M = -8.522,-0.9075 and -0.6182 and -0.5737 and -1.007 and 0.1197 and -2.04
same,Dose-response curves for asenapine vs endogenous trace amines,hTA1; M = -9,-0.9521 and -0.863 and -1.419 and -0.8664 and -0.8195 and -1.618
same,Dose-response curves for asenapine vs endogenous trace amines,hTA1; M = -9.522,-1.019 and -2.087 and -1.442 and -1.383 and -0.8195 and -2.228
same,Dose-response curves for asenapine vs endogenous trace amines,hTA1; M = -10,-0.863 (2×) and -1.286 and -1.477 and -1.054 and -1.571
same,Dose-response curves for asenapine vs endogenous trace amines,hTA1; M = -10.522,-1.531 and -2.287 and -1.464 and -1.571 and -1.336 and -1.618
same,Dose-response curves for asenapine vs endogenous trace amines,hTA1; M = -11,-0.1731 and -0.9075 and -0.3734 and -0.5847 and 0.1197 and -1.054
same,Dose-response curves for asenapine vs endogenous trace amines,hTA1; M = -11.522,-0.507 and -1.152 and -1.197 and -0.209 and -0.1151 and -1.054
same,Dose-response curves for asenapine vs endogenous trace amines,hTA1; M = -12,-0.774 and -1.419 and -1.8645 and -1.336 (2×) and -1.571
same,Dose-response curves for asenapine vs endogenous trace amines,hTA1; M = -12.522,-1.019 and -1.798 (2×) and -0.7255 and -1.43 and -2.087
same,pEC50 ± SEM,"hTA1; wt hTA1, HEK293T, n=3",6.13 ± 0.04
same,EC50,"hTA1; wt hTA1, HEK293T, n=3, read-out: EC50",743 nM
same,Emax,"hTA1; wt hTA1, relative to β-PEA",70.5%
